Results taken from patent US7786045B2, “Aryl ether compounds and their preparation and use thereof” (Sinochem Corporation, priority 2005, dated 2010).

Experiments:
[1] = test system: cucumber downy mildew (Pseudoperonospora cubenis); experiment: Whole-plant fungicidal test, cucumber downy mildew; assay type: in vivo, Pseudoperonospora cubensis
[2] = test system: rice sheath blight (Rhizoctonia solani); experiment: Whole-plant fungicidal test, protectant activity, rice sheath blight; assay type: in vivo
[3] = test system: green peach aphids (Myzus persicae); experiment: Insecticidal activity, green peach aphids, spraying; conditions: 200 mg/L; mortality after two days
Method: (§1) Determination of insecticidal and acaricidal activities of selected compounds were carried out by following procedure:
(§2) Technical samples were dissolved in mixed solvent (acetone:methanol=1:1), and diluted to required concentration with water containing 0.1% of tween 80.
(§3) The second instar larvae of armyworm (Leucania separata), diamond backmoth (Plutella xylostella) and culex mosquitoes (Culex pipiens pallens), green peach aphids (Myzus persicae) and mite (Tetranychus cinnabarinus) were used in biological test. The method was employed either spraying by airbrush or immersing (larvae of culex mosquitoes). A test solution (0.5 mL) was sprayed at the pressure of 10 psi (about 0.7 kg/cm^2). Percent mortality was determined after two days.

[4] = test system: wheat powdery mildew (BLumeria graminis); experiment: Whole-plant fungicidal test, protectant activity, wheat powdery mildew; assay type: in vivo; conditions: for control against wheat powdery mildew: 500 mg/L
wheat powdery mildew = experiment: Whole-plant fungicidal test, curative activity, wheat powdery mildew; assay type: in vivo, Erysiphe graminis; conditions: for inhibition at 0.39 µg/mL / inhibition at 0.78 µg/mL / inhibition at 1.56 µg/mL / inhibition at 3.125 µg/mL / inhibition at 6.25 µg/mL / inhibition at 12.5 µg/mL: Triticum aestivum, 96 h, read-out: 4 day curative activity (%) against wheat powdery mildew
[5] = test system: wheat head blight (Fusarium graminearum); assay type: in vivo; conditions: in words
[6] = test system: tomato cercospora leaf mold (Fulvia fulva); experiment: Whole-plant fungicidal test, tomato cercospora leaf mold; assay type: in vivo; conditions: in words
[7] = test system: cucumber powdery mildew (Sphaerotheca fuliginea); experiment: Whole-plant fungicidal test, cucumber powdery mildew; assay type: in vivo; conditions: in words
[8] = test system: cucumber anthracnose (Colletotrichum lagenarium); experiment: Whole-plant fungicidal test, cucumber anthracnose; assay type: in vivo
[9] = test system: rape sclerotinia stem rot (Sclerotinia sclerotiorum); experiment: Whole-plant fungicidal test, rape sclerotinia stem rot; assay type: in vivo; conditions: in words
[10] = test system: cucumber scab (Cladosporium cucumerinum); experiment: Whole-plant fungicidal test, cucumber scab; assay type: in vivo; conditions: in words
[11] = test system: apple alternaria rot (valsa mali); experiment: Whole-plant fungicidal test, apple alternaria rot; assay type: in vivo; conditions: in words
[12] = test system: rice blast (Pyricularia oryzae); assay type: in vivo; conditions: in words
[13] = test system: corn southern leaf blight (Helminthosporium maydis); experiment: Whole-plant fungicidal test, corn southern leaf blight; assay type: in vivo; conditions: in words
Method: Protectant and curative activity of experimental compounds are tested with whole plants. […] For the protectant method, test solution was sprayed onto potted plant. Pathogen inoculation was carried out after 24 hours then plants were hold in growth chambers containing constant temperature and moisture for effect. When untreated plant was under desirable disease severity (after 1 week approximately), assessment were carried out by visual observation. Test plant inoculated with fungus for 4 days are sprayed with the solution of a compound and then cultured in green house for 3-4 days. The curative activity is assessed based on the control plant's index of disease.

[14] = test system: diamond backmoth (Plutella xylostella); experiment: Insecticidal activity, diamond backmoth, spraying; conditions: 200 mg/L; mortality after two days
Method: as §1, §2, §3

[15] = test system: tomato late blight (Phytophthora infestans); assay type: in vivo; conditions: in words
[16] = test system: cucumber grey mold (Botrytis cinerea); experiment: Whole-plant fungicidal test, cucumber grey mold; assay type: in vivo; conditions: 500 mg/L

## COC=C(C(=O)OC)c1ccccc1COc1cc(-c2cccs2)nn1C [Compound 367]
[1]; 500 mg/L
  control against cucumber downy mildew: 100%

## COC(=O)NC(=S)Nc1ccccc1NC(=S)NC(=O)OC [triophanate-methyl, reference compound]
[2]; 1.5625 mg/L
  1 day protection activity (%) against rice sheath blight: 0%
[2]; 3.125 mg/L
  1 day protection activity (%) against rice sheath blight: 0%
[2]; 6.25 mg/L
  1 day protection activity (%) against rice sheath blight: 0%
[2]; 12.5 mg/L
  1 day protection activity (%) against rice sheath blight: 0%
[2]; 25 mg/L
  1 day protection activity (%) against rice sheath blight: 20%
[2]; 50 mg/L
  1 day protection activity (%) against rice sheath blight: 55%
[2]; 100 mg/L
  1 day protection activity (%) against rice sheath blight: 75%

## COC(=O)N(OC)c1ccccc1COc1cc(-c2ccc(Br)cc2)nn1C [Compound 15]
[3]
  control of green peach aphids: 90%
[1]; 25 mg/L
  control against cucumber downy mildew: 100%
[1]; 500 mg/L
  control against cucumber downy mildew: 100%

## COC(=O)N(OC)c1ccccc1COc1cc(-c2ccc(Cl)cc2Cl)nn1C [Compound 10]
[1]; 500 mg/L
  control against cucumber downy mildew: 100%
[4]
  control against wheat powdery mildew: 100%

## CNC(=O)C(=NOC)c1ccccc1COc1cc(-c2cccs2)nn1C [Compound 415]
[1]; 500 mg/L
  control against cucumber downy mildew: 100%

## COC(=O)N(OC)c1ccccc1COc1cc(-c2ccccc2Cl)nn1C [Compound 20]
[1]; 25 mg/L
  control against cucumber downy mildew: 100%
[1]; 500 mg/L
  control against cucumber downy mildew: 100%
[4]
  control against wheat powdery mildew: 100%

## COC(=O)N(OC)c1ccccc1COc1c(C)c(-c2ccc(C)cc2)nn1C [Compound 78]
[1]; 25 mg/L
  control against cucumber downy mildew: 100%
[1]; 500 mg/L
  control against cucumber downy mildew: 100%
[4]
  control against wheat powdery mildew: 100%

## COC(=O)N(OC)c1ccccc1COc1cc(-c2ccc(SC)cc2)nn1C [Compound 8]
[1]; 500 mg/L
  control against cucumber downy mildew: 100%

## CO/N=C(/C(=O)OC)c1ccccc1COc1ccccc1C [Kresoxim methyl, reference compound]
Wheat powdery mildew; 0.39 mg/L
  inhibition at 0.39 µg/mL: 0%
Wheat powdery mildew; 0.78 mg/L
  inhibition at 0.78 µg/mL: 0%
Wheat powdery mildew; 1.56 mg/L
  inhibition at 1.56 µg/mL: 10%
Wheat powdery mildew; 3.125 mg/L
  inhibition at 3.125 µg/mL: 15%
Wheat powdery mildew; 6.25 mg/L
  inhibition at 6.25 µg/mL: 20%
Wheat powdery mildew; 12.5 mg/L
  inhibition at 12.5 µg/mL: 100%
[4]; Blumeria graminis, 24 h, 0.39 mg/L, read-out: 1 day protection activity (%) against wheat powdery mildew
  inhibition at 0.39 µg/mL: 0%
[4]; Blumeria graminis, 24 h, 0.78 mg/L, read-out: 1 day protection activity (%) against wheat powdery mildew
  inhibition at 0.78 µg/mL: 15%
[4]; Blumeria graminis, 24 h, 1.56 mg/L, read-out: 1 day protection activity (%) against wheat powdery mildew
  inhibition at 1.56 µg/mL: 40%
[4]; Blumeria graminis, 24 h, 3.125 mg/L, read-out: 1 day protection activity (%) against wheat powdery mildew
  inhibition at 3.125 µg/mL: 70%
[4]; Blumeria graminis, 24 h, 6.25 mg/L, read-out: 1 day protection activity (%) against wheat powdery mildew
  inhibition at 6.25 µg/mL: 98%
[4]; Blumeria graminis, 24 h, 12.5 mg/L, read-out: 1 day protection activity (%) against wheat powdery mildew
  inhibition at 12.5 µg/mL: 100%
[4]; Blumeria graminis, 24 h, 25 mg/L, read-out: 1 day protection activity (%) against wheat powdery mildew
  inhibition at 25 µg/mL: 100%

## COC(=O)N(OC)c1ccccc1COc1cc(-c2ccc(C)cc2)nn1C [Compound 16]
[4]
  control against wheat powdery mildew: 100%

## COC(=O)N(OC)c1ccccc1COc1c(C)c(-c2ccccc2)nn1C [Compound 63]
[5]
  activity against wheat head blight: moderate activity
[6]
  activity against tomato cercospora leaf mold: moderate activity
[7]
  activity against cucumber powdery mildew: excellent activity
[8]; 1.56 mg/L
  control against cucumber anthracnose: 100%
[8]; 100 mg/L
  control against cucumber anthracnose: 100%
[8]; in words
  activity against cucumber anthracnose: excellent activity
[9]
  activity on rape sclerotinia stem rot: good activity
[10]
  activity on cucumber scab: good activity
[11]
  activity on apple alternaria rot: good activity
[2]; 1.5625 mg/L
  1 day protection activity (%) against rice sheath blight: 55%
[2]; 3.125 mg/L
  1 day protection activity (%) against rice sheath blight: 60%
[2]; 6.25 mg/L
  1 day protection activity (%) against rice sheath blight: 65%
[2]; 12.5 mg/L
  1 day protection activity (%) against rice sheath blight: 75%
[2]; 25 mg/L
  1 day protection activity (%) against rice sheath blight: 80%
[2]; 50 mg/L
  1 day protection activity (%) against rice sheath blight: 100%
[2]; 100 mg/L
  1 day protection activity (%) against rice sheath blight: 100%
[2]; in words
  activity against rice sheath blight: excellent activity
[12]
  activity against rice blast: excellent activity
Wheat powdery mildew; 0.39 mg/L
  4 day curative activity (%) against wheat powdery mildew: 50%
Wheat powdery mildew; 0.78 mg/L
  4 day curative activity (%) against wheat powdery mildew: 80%
Wheat powdery mildew; 1.56 mg/L
  4 day curative activity (%) against wheat powdery mildew: 100%
Wheat powdery mildew; 3.125 mg/L
  4 day curative activity (%) against wheat powdery mildew: 100%
Wheat powdery mildew; 6.25 mg/L
  4 day curative activity (%) against wheat powdery mildew: 100%
Wheat powdery mildew; 12.5 mg/L
  4 day curative activity (%) against wheat powdery mildew: 100%
[1]; 25 mg/L
  control against cucumber downy mildew: 100%
[1]; 500 mg/L
  control against cucumber downy mildew: 100%
[1]; in words
  activity against cucumber downy mildew: excellent activity
[13]
  activity against corn southern leaf blight: moderate activity
[14]
  control of diamond backmoth: 100%
[15]
  activity against tomato late blight: excellent activity
[4]; 0.19 mg/L
  1 day protection activity (%) against wheat powdery mildew: 55%
[4]; 0.39 mg/L
  1 day protection activity (%) against wheat powdery mildew: 75%
[4]; 0.78 mg/L
  1 day protection activity (%) against wheat powdery mildew: 95%
[4]; 1.56 mg/L
  1 day protection activity (%) against wheat powdery mildew: 100%
[4]; 3.125 mg/L
  1 day protection activity (%) against wheat powdery mildew: 100%
[4]; 6.25 mg/L
  1 day protection activity (%) against wheat powdery mildew: 100%
[4]; 12.5 mg/L
  1 day protection activity (%) against wheat powdery mildew: 100%
[4]; 25 mg/L
  1 day protection activity (%) against wheat powdery mildew: 100%
[4]
  control against wheat powdery mildew: 100%
[4]; in words
  activity against wheat powdery mildew: excellent activity

## COC=C(C(=O)OC)c1ccccc1-c1cc(Oc2cc(-c3ccc(Cl)cc3)nn2C(C)C)ncn1 [Compound 194]
[1]; 500 mg/L
  control against cucumber downy mildew: 100%

## COC(=O)N(OC)c1ccccc1COc1cc(-c2ccccc2)nn1C [Compound 1]
[1]; 500 mg/L
  control against cucumber downy mildew: 100%

## CON=C(C(=O)OC)c1ccccc1COc1cc(-c2cccs2)nn1C [Compound 391]
[1]; 500 mg/L
  control against cucumber downy mildew: 90%

## COC(=O)N(OC)c1ccccc1COc1cc(-c2ccc(Cl)nc2)nn1C [Compound 21]
[16]
  control against cucumber grey mold: 100%
[4]
  control against wheat powdery mildew: 100%

## CC(C)(C)C(O)(CCc1ccc(Cl)cc1)Cn1cncn1 (stereo not drawn) [tebuconazole]
Wheat powdery mildew; 0.39 mg/L
  inhibition at 0.39 µg/mL: 0%
Wheat powdery mildew; 0.78 mg/L
  inhibition at 0.78 µg/mL: 0%
Wheat powdery mildew; 1.56 mg/L
  inhibition at 1.56 µg/mL: 15%
Wheat powdery mildew; 3.125 mg/L
  inhibition at 3.125 µg/mL: 45%
Wheat powdery mildew; 6.25 mg/L
  inhibition at 6.25 µg/mL: 70%
Wheat powdery mildew; 12.5 mg/L
  inhibition at 12.5 µg/mL: 85%

## COC(=O)N(OC)c1ccccc1COc1cc(-c2ccc(Cl)cc2)nn1C(C)C [Compound 11]
[1]; 500 mg/L
  control against cucumber downy mildew: 90%

## COC(=O)N(OC)c1ccccc1COc1ccn(-c2ccc(Cl)cc2)n1 [pyraclostrobin]
Wheat powdery mildew; 0.39 mg/L
  inhibition at 0.39 µg/mL: 0%
Wheat powdery mildew; 0.78 mg/L
  inhibition at 0.78 µg/mL: 25%
Wheat powdery mildew; 1.56 mg/L
  inhibition at 1.56 µg/mL: 60%
Wheat powdery mildew; 3.125 mg/L
  inhibition at 3.125 µg/mL: 85%
Wheat powdery mildew; 6.25 mg/L
  inhibition at 6.25 µg/mL: 100%
Wheat powdery mildew; 12.5 mg/L
  inhibition at 12.5 µg/mL: 100%
